Results as given in PMC10272112 (Nature Communications, 2023).
Values joined by “and” are separate entries in the source; they are usually repeats but may differ in a detail not shown here. Identical values can stand only once.

How the values were obtained:
[1] = molecular target: T1, TwinStrep-GST-HDAC10 (Homo sapiens, UniProt Q969S8); assay: HDAC10 TR-FRET assay; format: binding; settings: sheet S2e
T1 sequence (Q969S8 1-669): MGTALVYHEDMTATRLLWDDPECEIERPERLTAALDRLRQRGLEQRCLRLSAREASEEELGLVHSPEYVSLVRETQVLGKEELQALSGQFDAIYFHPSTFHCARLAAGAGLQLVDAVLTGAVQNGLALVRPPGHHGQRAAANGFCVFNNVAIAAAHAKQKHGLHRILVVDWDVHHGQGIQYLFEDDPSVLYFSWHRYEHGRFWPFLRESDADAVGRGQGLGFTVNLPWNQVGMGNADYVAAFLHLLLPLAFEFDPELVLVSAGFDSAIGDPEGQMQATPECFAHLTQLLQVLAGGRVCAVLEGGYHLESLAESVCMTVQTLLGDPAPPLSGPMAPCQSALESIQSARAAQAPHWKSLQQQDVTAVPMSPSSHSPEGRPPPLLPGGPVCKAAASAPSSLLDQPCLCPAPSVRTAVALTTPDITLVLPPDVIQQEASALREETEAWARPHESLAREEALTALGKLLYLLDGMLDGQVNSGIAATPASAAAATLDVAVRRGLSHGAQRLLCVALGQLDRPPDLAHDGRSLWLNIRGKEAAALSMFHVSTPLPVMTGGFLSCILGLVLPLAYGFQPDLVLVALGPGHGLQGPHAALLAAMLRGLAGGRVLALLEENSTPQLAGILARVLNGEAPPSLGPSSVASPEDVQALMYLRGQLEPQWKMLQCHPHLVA
Method: (§1) To validate the inhibition of HDACs by LA and LM and elaborate on the structure-activity relationship (SAR) of enantiomers as well as oxidized versus reduced forms of the molecules, we performed enzyme activity assays for recombinant HDAC1,2,3,6,8 as well as FRET-based binding assay for recombinant HDAC10.
Inhibitors with a D300e Digital Dispenser (Tecan). After drug dosing to the premixed assay reagents in buffer, plates were shaken (800 rpm orbital shaker, 30 s), centrifuged (300g, 1 min), and incubated at RT in the dark for 90 min. TR-FRET was measured with a CLARIOstar (BMG Labtech) plate reader, equipped with TR-FRET filters.

[2] = molecular target: HDAC1 (Homo sapiens, UniProt Q13547); assay: HDAC-Glo assay; format: biochemical; parameters: purchased BPS Bioscience 50051; settings: 0.5 M TCEP, listed as SAHA
Method: as §1
The experiments were performed according to ref. [48]. […] Drug dosing was performed with a D300e Digital Dispenser (Tecan). HDACs (7 ng/mL for HDAC1, 25 ng/mL for HDAC2, 200 ng/mL for HDAC3/Ncor2 complex, 100 ng/mL for HDAC6, 200 ng/mL for HDAC8) and inhibitors were incubated together at room temperature (RT) for 30 min. After the addition of the HDAC-Glo™ I/II reagent, plates were shaken (800 rpm orbital shaker, 30 s), centrifuged (300 g, 1 min), and incubated at RT for 30 min. Luminescence was detected with a CLARIOstar (BMG Labtech) plate reader.

[3] = system: A549 cells; assay: Arsenite-induced stress granule formation (G3BP1 immunofluorescence); format: cell-based; settings: for arsenite-induced stress granule quantification (G3BP1), Mean / arsenite-induced stress granule quantification (G3BP1), Median / arsenite-induced stress granule quantification (G3BP1), individual values: sheet 4b; for arsenite-induced stress granule quantification (G3BP1), individual values: single data points
Method: The acetylation status of proteins can affect their macromolecular associations and the tendency of proteins to phase-separate into liquid condensates such as stress granules. […] After pre-incubation of cells with the compound, stress granule formation was induced using 30 min of arsenite treatment (1 mM). After treatment, cells were fixed for immunofluorescence detection of stress granules via the common stress granule marker protein G3BP1[21].
0.03 × 10^6 A549 cells were seeded at 4-chamber slides (Thermo, Nunc) and cultured at 37 °C overnight. Cells were treated with HDAC inhibitor SAHA and Lipoic acid or LM for 6 h, followed by 1 mM Arsenite for 30 min. Cells were fixed by 4% PFA and permeabilized by 0.5% Triton X-100/PBS. 10% Goat serum in PBS was used for blocking. After manually selecting an area with cell confluency of 50–80%, 16 pictures were taken randomly around the central point (ZEISS software in-built function). Stress granule marker G3BP1 (Aviva Systems Biology, ARP37713_T100) was visualized and quantified by ImageJ. Statistical analysis was performed with GraphPad Prism.

HDAC1, sequence (Q13547 whole entry): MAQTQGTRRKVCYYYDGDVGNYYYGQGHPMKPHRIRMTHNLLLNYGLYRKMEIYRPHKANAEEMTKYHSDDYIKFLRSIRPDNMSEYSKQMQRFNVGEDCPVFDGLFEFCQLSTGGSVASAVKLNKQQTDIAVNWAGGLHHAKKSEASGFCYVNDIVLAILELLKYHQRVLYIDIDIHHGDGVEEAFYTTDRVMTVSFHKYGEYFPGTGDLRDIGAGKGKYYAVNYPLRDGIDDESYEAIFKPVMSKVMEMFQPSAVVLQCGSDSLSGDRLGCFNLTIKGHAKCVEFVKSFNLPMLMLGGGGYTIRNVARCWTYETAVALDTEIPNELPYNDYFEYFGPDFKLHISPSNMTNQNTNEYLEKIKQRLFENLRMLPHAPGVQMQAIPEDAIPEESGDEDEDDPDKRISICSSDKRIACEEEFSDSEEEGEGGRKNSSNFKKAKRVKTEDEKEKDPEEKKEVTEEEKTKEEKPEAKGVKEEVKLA

## O=C(O)CCCCC1CCSS1 (centres unmarked) [R/S Lipoic Acid]
[1]; log conc -4.58031
  HDAC10 TR-FRET relative signal: 16.6621 and 17.5526 and 13.058
[1]; log conc -5.16059
  HDAC10 TR-FRET relative signal: 24.6813 and 29.9295 and 28.3509
[1]; log conc -5.74088
  HDAC10 TR-FRET relative signal: 52.1664 and 54.0588 and 51.0514
[1]; log conc -6.32148
  HDAC10 TR-FRET relative signal: 88.5435 and 84.6455 and 96.7603
[1]; log conc -6.92082
  HDAC10 TR-FRET relative signal: 91.5597 and 91.2649 and 101.82
[1]; log conc -7.57349
  HDAC10 TR-FRET relative signal: 99.4261 and 99.6664 and 105.18
[1]; log conc -8.06198
  HDAC10 TR-FRET relative signal: 106.58 and 110.725 and 95.693

## NC(=O)CCCCC1CCSS1 (centres unmarked) [R/S Lipoic Amide]
[1]; log conc -4
  HDAC10 TR-FRET relative signal: 8.95 and 4.904 and 5.819
[1]; log conc -6.32148
  HDAC10 TR-FRET relative signal: 8.47 and 4.461 and 8.704
[1]; log conc -7.57349
  HDAC10 TR-FRET relative signal: 45.0477 and 41.2172 and 50.7784
[1]; log conc -8.06198
  HDAC10 TR-FRET relative signal: 82.499 and 87.6271 and 84.2057

## O=C(CCCCCCC(=O)Nc1ccccc1)NO [Vorinostat]
[2]; log10 M -4.30103, 3 technical replicates
  raw luminescence signal, HDAC1 inhibition: 1951 and 1963 and 1822
[2]; log10 M -5.12407, 3 technical replicates
  raw luminescence signal, HDAC1 inhibition: 3958 and 4231 and 3895
[2]; log10 M -5.94692, 3 technical replicates
  raw luminescence signal, HDAC1 inhibition: 19908 and 20969 and 19762
[2]; log10 M -6.76955, 3 technical replicates
  raw luminescence signal, HDAC1 inhibition: 88503 and 91916 and 93868
[2]; log10 M -7.59346, 3 technical replicates
  raw luminescence signal, HDAC1 inhibition: 248915 and 245579 and 256063
[2]; log10 M -8.41567, 3 technical replicates
  raw luminescence signal, HDAC1 inhibition: 337631 and 344047 and 344507
[2]; log10 M -9.27327, 3 technical replicates
  raw luminescence signal, HDAC1 inhibition: 375556 and 372678 and 377396
[2]; log10 M -10.062, 3 technical replicates
  raw luminescence signal, HDAC1 inhibition: 346292 and 360694 and 357566
[3]; SAHA 5 uM
  arsenite-induced stress granule quantification (G3BP1), Mean: 45.6514
  arsenite-induced stress granule quantification (G3BP1), Median: 49.1176
  arsenite-induced stress granule quantification (G3BP1), individual values: 49.2857 and 50.3 and 41.875 and 50.4286 and 49.1176 and 51.2222 and 60.7 and 38.0833 and 56.9 and 30 and 49.3333 and 45.8824 and 50.6667 and 31.4 and 46 and 38.6364 and 52.8182 and 41.7273 and 33
[3]; SAHA 10 uM
  arsenite-induced stress granule quantification (G3BP1), Mean: 35.2798
  arsenite-induced stress granule quantification (G3BP1), Median: 36
  arsenite-induced stress granule quantification (G3BP1), individual values: 44.5 and 23.5 and 22.5 and 18.5 and 15.6364 and 31 and 37.5882 and 55.1667 and 42.2 and 33.2 and 29.6923 and 41.5 and 52.75 and 25.3333 and 40.5 and 51.1667 and 36 and 30.8333 and 38.75
[3]; pre-incubation 6 h, then 1 mM arsenite 30 min
  effect on stress granule numbers per cell: dose-dependent reduction of stress granule numbers per cell
